Values belong to the compound of their own block, whether it stands above or below them.
Target: T1, Human orexin receptor type 2 (Homo sapiens, UniProt O43614)
T1 construct: expressed in transfected cells; host or cells: CHO cells (transient expression, with apoaequorin)
T1 sequence (O43614 1-444): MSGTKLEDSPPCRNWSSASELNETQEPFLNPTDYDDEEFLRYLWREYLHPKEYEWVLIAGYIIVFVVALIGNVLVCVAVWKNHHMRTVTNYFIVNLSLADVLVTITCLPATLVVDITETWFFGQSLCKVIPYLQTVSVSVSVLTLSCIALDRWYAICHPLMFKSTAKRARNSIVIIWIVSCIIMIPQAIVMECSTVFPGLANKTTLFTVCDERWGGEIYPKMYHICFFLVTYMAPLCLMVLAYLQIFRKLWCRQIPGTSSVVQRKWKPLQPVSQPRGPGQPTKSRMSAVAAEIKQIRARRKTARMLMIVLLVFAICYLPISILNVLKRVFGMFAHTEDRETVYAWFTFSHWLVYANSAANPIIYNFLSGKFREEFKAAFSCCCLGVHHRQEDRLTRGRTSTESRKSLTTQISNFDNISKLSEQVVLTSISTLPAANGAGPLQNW
Experiment: Test Example 1: agonist activity for orexin receptor type 2 (aequorin luminescence, intracellular calcium mobilization in CHO cells)
Type: cell-based
Conditions: compound 10 μM; relative percentage of luminescence for the luminescence (100%) of Orexin A (100 μM); CHO cells transiently expressing human orexin receptor type 2 and apoaequorin
Protocol: Test Example 1: Measurement of Agonist Activity for Orexin Receptor Type 2
Human orexin receptor type 2 and apoaequorin were transiently expressed in CHO cells, and the agonist activity was evaluated based on intracellular calcium mobilization with ligand stimulation. The CHO cells transiently-expressed human orexin receptor type 2 and apoaequorin were seeded on a 384-well plate by 2,000 cells/well, and then incubated for 16-22 hours. After the plate was returned to room temperature, Coelenterazine hcp (final concentration: 1 μM) was added to the plate, and the plate was allowed to stand at room temperature for 2 hours. And then, Orexin A or each test compound was added to the plate, and the luminescence of the cells was measured with FDSS7000 (Hamamatsu Photonics K.K.), wherein Orexin A and each test compound were dissolved in DMSO (final concentration: 0.1%), and diluted with a buffer (Hanks, 20 mM HEPES, 0.1% BSA). The agonist activity of each test compound for orexin receptor type 2 was calculated as relative percentage of luminescence for the luminescence (100%) of Orexin A (100 μM).
Each agonist activity of the compounds obtained in Examples (10 μM) for orexin receptor type 2 is shown in the table below as relative percentage of luminescence for the luminescence (100%) of Orexin A (100 μM).

- Agonist Activity (%): 491%
SMILES: CC(C)N1CCN([C@H]2CCCC(F)(F)[C@@H]2NC(=O)N2C[C@H]3C[C@@H](c4cccc(F)c4)C[C@H]3C2)CC1 [Example 16, (3aR,5R,6aS)—N-{(1R,6S)-2,2-difluoro-6-[4-(propan-2-yl)piperazin-1-yl]cyclohexyl}-5-(3-fluorophenyl)hexahydropenta[c]pyrrole-2(1H)-carboxamide]

- Agonist Activity (%): 79%
SMILES: CC(C)N1CCN([C@H]2CCCC(F)(F)[C@@H]2NC(=O)N2CC[C@H]3C[C@H](c4noc(C5CC5)n4)[C@H]3C2)CC1 [Example 5]

- Agonist Activity (%): 477%
SMILES: CC(C)N1CCN([C@H]2CCCC(F)(F)[C@@H]2NC(=O)N2C[C@@H]3CN(c4ccccc4)C[C@@H]3C2)CC1 [Example 11, (3aR,6aS)—N-{(1R,6S)-2,2-difluoro-6-[4-(propan-2-yl)piperazin-1-yl]cyclohexyl}-5-phenylhexahydropyrrolo[3,4-c]pyrrole-2(1H)-carboxamide]

- Agonist Activity (%): 423%
SMILES: CC(C)N1CCN([C@H]2CCCC(F)(F)[C@@H]2NC(=O)N2C[C@H]3C[C@@H](c4noc(C5CC5)n4)C[C@H]3C2)CC1 [Example 8, (3aR,5R,6aS)-5-(5-cyclopropyl-1,2,4-oxadiazol-3-yl)-N-{(1R,6S)-2,2-difluoro-6-[4-(propan-2-yl)piperazin-1-yl]cyclohexyl}hexahydropenta[c]pyrrole-2(1H)-carboxamide]

- Agonist Activity (%): 375%
SMILES: CC(C)N1CCN([C@H]2CCCC(F)(F)[C@@H]2NC(=O)N2C[C@H]3C[C@H](c4noc(C5CC5)n4)C[C@H]3C2)CC1 [Example 1, (3aR,5S,6aS)-5-(5-Cyclopropyl-1,2,4-oxadiazol-3-yl)-N-{(1R,6S)-2,2-difluoro-6-[4-(propan-2-yl)piperazin-1-yl]cyclohexyl}hexahydropenta[c]pyrrole-2(1H)-carboxamide]

- Agonist Activity (%): 328%
SMILES: CC(C)N1CCN([C@H]2CCCC(F)(F)[C@@H]2NC(=O)N2C[C@@H]3C[C@](C)(c4noc([C@@H]5C[C@@H]5F)n4)C[C@@H]3C2)CC1 [Example 7, (3aR,5R,6aS)—N-{(1R,6S)-2,2-difluoro-6-[4-(propan-2-yl)piperazin-1-yl]cyclohexyl}-5-{5-[(1S,2S)-2-fluorocyclopropyl]-1,2,4-oxadiazol-3-yl}-5-methylhexahydropenta[c]pyrrole-2(1H)-carboxamide]

Further lines, the compound ahead of its results:

SMILES: CC(C)N1CCN([C@H]2CCCC(F)(F)[C@@H]2NC(=O)N2C[C@@H]3C[C@](C)(c4noc(C5CC5)n4)C[C@@H]3C2)CC1 [Example 6, (3aR,5R,6aS)-5-(5-cyclopropyl-1,2,4-oxadiazol-3-yl)-N-{(1R,6S)-2,2-difluoro-6-[4-(propan-2-yl)piperazin-1-yl]cyclohexyl}-5-methylhexahydropenta[c]pyrrole-2(1H)-carboxamide]
- Agonist Activity (%): 282%

SMILES: CC(C)N1CCN([C@H]2CCCC(F)(F)[C@@H]2NC(=O)N2C[C@H]3C[C@@H](c4ccccc4F)C[C@H]3C2)CC1 [Example 17, (3aR,5R,6aS)—N-{(1R,6S)-2,2-difluoro-6-[4-(propan-2-yl)piperazin-1-yl]cyclohexyl}-5-(2-fluorophenyl)hexahydropenta[c]pyrrole-2(1H)-carboxamide]
- Agonist Activity (%): 315%

SMILES: CC(C)N1CCN([C@H]2CCCC(F)(F)[C@@H]2NC(=O)N2C[C@H]3C[C@@H](c4ccccc4)C[C@H]3C2)CC1 [Example 9, (3aR,5R,6aS)—N-{(1R,6S)-2,2-difluoro-6-[4-(propan-2-yl)piperazin-1-yl]cyclohexyl}-5-phenylhexahydropenta[c]pyrrole-2(1H)-carboxamide]
- Agonist Activity (%): 424%

SMILES: CC(C)N1CCN([C@H]2CCCC(F)(F)[C@@H]2NC(=O)N2C[C@H]3C[C@H](c4noc([C@@H]5C[C@@H]5F)n4)C[C@H]3C2)CC1 [Example 2, (3aR,5S,6aS)—N-{(1R,6S)-2,2-difluoro-6-[4-(propan-2-yl)piperazin-1-yl]cyclohexyl}-5-{5-[(1S,2S)-2-fluorocyclopropyl]-1,2,4-oxadiazol-3-yl}hexahydropenta[c]pyrrole-2(1H)-carboxamide]
- Agonist Activity (%): 275%

SMILES: CC(C)N1CCN([C@H]2CCCC(F)(F)[C@@H]2NC(=O)N2C[C@H]3CC(c4ccccc4)C[C@H]3C2)CC1 (stereo partly drawn) [Example 12, (3aR,5S,6aS)—N-{(1R,6S)-2,2-difluoro-6-[4-(propan-2-yl)piperazin-1-yl]cyclohexyl}-5-phenylhexahydropenta[c]pyrrole-2(1H)-carboxamide]
- Agonist Activity (%): 492%

SMILES: CC(C)N1CCN([C@H]2CCCC(F)(F)[C@@H]2NC(=O)N2C[C@H]3CC(c4ccccc4)=C[C@H]3C2)CC1 [Example 10]
- Agonist Activity (%): 450%

SMILES: CC(C)N1CCN([C@H]2CCCC(F)(F)[C@@H]2NC(=O)N2C[C@H]3C[C@@H](c4ccc(F)cc4)C[C@H]3C2)CC1 [Example 15, (3aR,5R,6aS)—N-{(1R,6S)-2,2-difluoro-6-[4-(propan-2-yl)piperazin-1-yl]cyclohexyl}-5-(4-fluorophenyl)hexahydropenta[c]pyrrole-2(1H)-carboxamide]
- Agonist Activity (%): 511%

SMILES: CC(C)N1CCN([C@H]2CCCC(F)(F)[C@@H]2NC(=O)N2C[C@@H]3[C@H](C2)[C@H]3c2noc(C3CC3)n2)CC1 [Example 3, (1R,5S,6R)-6-(5-cyclopropyl-1,2,4-oxadiazol-3-yl)-N-{(1R,6S)-2,2-difluoro-6-[4-(propan-2-yl)piperazin-1-yl]cyclohexyl}-3-azabicyclo[3.1.0]hexane-3-carboxamide]
- Agonist Activity (%): 217%

SMILES: Cc1ccccc1[C@@H]1C[C@@H]2CN(C(=O)N[C@@H]3[C@@H](N4CCN(C(C)C)CC4)CCCC3(F)F)C[C@@H]2C1 [Example 14, (3aR,5R,6aS)—N-{(1R,6S)-2,2-difluoro-6-[4-(propan-2-yl)piperazin-1-yl]cyclohexyl}-5-(2-methylphenyl)hexahydropenta[c]pyrrole-2(1H)-carboxamide]
- Agonist Activity (%): 446%

SMILES: CC(C)N1CCN([C@H]2CCCC(F)(F)[C@@H]2NC(=O)N2C[C@@H]3[C@H](C2)[C@@H]3c2noc(C3CC3)n2)CC1 [Example 4, (1R,5S,6S)-6-(5-cyclopropyl-1,2,4-oxadiazol-3-yl)-N-{(1R,6S)-2,2-difluoro-6-[4-(propan-2-yl)piperazin-1-yl]cyclohexyl}-3-azabicyclo[3.1.0]hexane-3-carboxamide]
- Agonist Activity (%): 15%

SMILES: Cc1ccc([C@@H]2C[C@@H]3CN(C(=O)N[C@@H]4[C@@H](N5CCN(C(C)C)CC5)CCCC4(F)F)C[C@@H]3C2)cc1 [Example 13, (3aR,5R,6aS)—N-{(1R,6S)-2,2-difluoro-6-[4-(propan-2-yl)piperazin-1-yl]cyclohexyl}-5-(4-methylphenyl)hexahydropenta[c]pyrrole-2(1H)-carboxamide]
- Agonist Activity (%): 466%

Reference: patent publication US20260265235A1, “BICYCLOAMINE CARBOXAMIDE DERIVATIVE” (Sumitomo Pharma Co., Ltd., priority 2022, published 2026)
